Assay results from publication PMC3392958, “Assay Format as a Critical Success Factor for Identification of Novel Inhibitor Chemotypes of Tissue-Nonspecific Alkaline Phosphatase from High-Throughput Screening” (Molecules, 2010).
Like-named read-outs stand apart in the source and are kept apart here. One block for each compound: values may come before it.

Columns and labels:
CYP2C9 = system: CYP2C9; design: method as in PubChem; conditions: @ 5 µM; ref PubChem; cited from earlier work
CYP2C19 = system: CYP2C19; design: method as in PubChem; conditions: @ 5 µM; ref PubChem; cited from earlier work
IAP [1] = target: T1, IAP (Homo sapiens, UniProt P09923); experiment: IAP luminescent assay (CDP-star); format: biochemical
T1 construct: made in house; host or cells: COS-1 cells, transient expression; dialyzed serum-free conditioned medium
T1 sequence (P09923 20-503 limits assumed): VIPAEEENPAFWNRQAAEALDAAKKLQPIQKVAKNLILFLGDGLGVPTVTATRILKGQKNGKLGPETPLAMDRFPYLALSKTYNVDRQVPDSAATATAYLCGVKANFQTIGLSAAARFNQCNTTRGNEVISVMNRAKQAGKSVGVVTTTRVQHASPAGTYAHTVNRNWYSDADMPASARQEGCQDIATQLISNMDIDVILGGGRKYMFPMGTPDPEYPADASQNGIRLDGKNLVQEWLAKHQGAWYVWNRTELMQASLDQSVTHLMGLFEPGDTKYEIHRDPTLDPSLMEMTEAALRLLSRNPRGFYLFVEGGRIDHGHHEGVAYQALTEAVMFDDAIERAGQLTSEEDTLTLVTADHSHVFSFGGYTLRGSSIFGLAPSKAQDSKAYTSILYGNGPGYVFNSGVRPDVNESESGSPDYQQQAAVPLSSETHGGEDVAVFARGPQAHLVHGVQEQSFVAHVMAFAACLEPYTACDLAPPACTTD
Procedure: (§1) Selectivity of Primary Actives Against other Phosphatases: To assess the selectivity of compounds across the alkaline phosphatase family, luminescent assays were developed for human PLAP and human IAP with the same CDP-Star reagent.
(§2) Development of the novel luminescent TNAP assay using CDP-star substrate and detailed protocol of its application for HTS is described in more detail elsewhere. […] Briefly, the assay was 50 μM CDP-star substrate in assay buffer containing 100 mM DEA-HCl (pH 9.8), 1 mM MgCl2, and 20 μM ZnCl2. The luminescence signal was measured after a 30-min incubation at room temperature on an EnVision plate reader (PerkinElmer, Waltham, MA). […] Detailed protocols can be found in the respective AIDs, however, the final buffer conditions were 100 mM DEA, pH 9.8, 1.0 mM MgCl2, 0.02 mM ZnCl2 for both PLAP and IAP.

GAPDH = GAPDH (Homo sapiens, UniProt P04406); experiment: Glyceraldehyde-3-phosphate dehydrogenase (GAPDH) assay; format: biochemical
Sequence of GAPDH (P04406 whole entry, species assumed): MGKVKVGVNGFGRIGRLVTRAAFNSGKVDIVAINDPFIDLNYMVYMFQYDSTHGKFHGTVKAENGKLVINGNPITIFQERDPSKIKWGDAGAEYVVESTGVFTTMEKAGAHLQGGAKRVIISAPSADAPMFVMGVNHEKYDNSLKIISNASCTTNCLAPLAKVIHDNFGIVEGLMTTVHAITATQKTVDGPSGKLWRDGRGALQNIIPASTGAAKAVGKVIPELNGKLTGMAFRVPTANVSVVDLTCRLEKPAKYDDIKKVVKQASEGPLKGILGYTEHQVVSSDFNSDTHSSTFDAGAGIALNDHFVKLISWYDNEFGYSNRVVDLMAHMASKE
Procedure: (§3) An additional sub-micromolar IAP assay using p-nitrophenol phosphate (pNPP) as substrate was developed at the CPCCG and was utilized for hit confirmation. Lead compounds were tested in a panel of assays consisting of: (1) TNAP luminescent assay (substrate: CDP-star); (2) TNAP colorimetric assay (substrate: pNPP); (3) PLAP luminescent assay (substrate: CDP-star); (4) IAP luminescent assay (substrate: CDP-star); (5) IAP colorimetric assay (substrate: pNPP); (6) solubility and (7) glyceraldehyde-3-phosphate dehydrogenase (GAPDH) assay. The latter two assays are designed to identify compounds that are likely to interfere with the assay components and would appear as non-specific inhibitors. Our approach to exploring the SAR for the IAP inhibitor series is shown graphically in Figure 8.
The National Institutes of Health (NIH) Molecular Libraries Small Molecule Repository (MLSMR, http://www.mli.nih.gov/mlsmr) supplied the compound library. The MLSMR, funded by the NIH, is responsible for the selection of small molecules for HTS screening, their purchase and quality control (QC) analysis, library maintenance, and distribution within the NIH Molecular Libraries Screening Center Network (MLSCN, http://www.mli.nih.gov/mlscn). Both MLSMR and MLSCN are parts of the Molecular Libraries Initiatives (MLI, http://nihroadmap.nih.gov/molecularlibraries) under the NIH Roadmap Initiatives (www.nihroadmap.nih.gov). MLSMR compounds are acquired from commercial and in part from academic and government sources and are selected based on the following criteria: samples are available for resupply in 10-mg quantity, are at least 90% pure, have acceptable physicochemical properties, and contain no functional groups or moieties that are known to generate artifacts in HTS (http://mlsmr.glpg.com/). Compounds are selected to represent diversified chemical space with clusters of closely related analogs around them to aid in the HTS-based structure-activity relationship (SAR) analysis. […]

TNAP [2] = target: T2, TNAP (Homo sapiens, UniProt P05186); experiment: TNAP luminescent assay (CDP-star substrate, 100 mM DEA); format: biochemical
T2 construct: made in house; host or cells: COS-1 cells, transient expression; dialyzed serum-free conditioned medium
T2 sequence (P05186 18-501 limits assumed): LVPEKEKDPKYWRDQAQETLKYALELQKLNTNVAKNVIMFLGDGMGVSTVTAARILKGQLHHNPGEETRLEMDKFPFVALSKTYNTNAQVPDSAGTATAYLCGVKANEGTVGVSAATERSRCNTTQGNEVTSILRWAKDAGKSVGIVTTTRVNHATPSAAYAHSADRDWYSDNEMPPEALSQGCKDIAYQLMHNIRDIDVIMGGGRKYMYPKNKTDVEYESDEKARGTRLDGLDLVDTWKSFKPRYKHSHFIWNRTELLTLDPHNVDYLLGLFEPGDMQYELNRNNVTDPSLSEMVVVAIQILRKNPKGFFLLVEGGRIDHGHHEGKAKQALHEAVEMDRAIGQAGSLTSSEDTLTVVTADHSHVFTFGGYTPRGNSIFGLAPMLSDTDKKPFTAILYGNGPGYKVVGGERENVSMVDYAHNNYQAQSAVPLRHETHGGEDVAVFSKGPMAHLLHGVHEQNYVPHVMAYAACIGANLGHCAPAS
Procedure: as §2

[3] = design: method as in PubChem; conditions: assays deposited in PubChem; ref PubChem; cited from earlier work
TNAP [4] = target: T2, TNAP; experiment: TNAP colorimetric assay (pNPP substrate, OD405, 1M DEA); format: biochemical; conditions: unit not given in Table 8; n=6; read-out: TNAP-Color
Procedure: The colorimetric TNAP assay was performed as previously described with slight modifications.

[5] = Solubility in aqueous solutions; format: physicochemical; conditions: read-out: concentrations at which compound is soluble
Procedure: as §3
The National Institutes of Health (NIH) Molecular Libraries Small Molecule Repository (MLSMR, http://www.mli.nih.gov/mlsmr) supplied the compound library. […] MLSMR compounds are acquired from commercial and in part from academic and government sources and are selected based on the following criteria: samples are available for resupply in 10-mg quantity, are at least 90% pure, have acceptable physicochemical properties, and contain no functional groups or moieties that are known to generate artifacts in HTS (http://mlsmr.glpg.com/). […]

IAP [6] = target: T1, IAP; experiment: IAP colorimetric assay (pNPP); format: biochemical; conditions: unit not given in Table 8; n=7; read-out: IAP-Color
Procedure: as §3

human PLAP = target: T3, human PLAP (Homo sapiens, UniProt P05187); experiment: PLAP luminescent assay (CDP-star); format: biochemical
T3 construct: made in house; host or cells: COS-1 cells, transient expression; dialyzed serum-free conditioned medium
T3 sequence (P05187 23-506 limits assumed): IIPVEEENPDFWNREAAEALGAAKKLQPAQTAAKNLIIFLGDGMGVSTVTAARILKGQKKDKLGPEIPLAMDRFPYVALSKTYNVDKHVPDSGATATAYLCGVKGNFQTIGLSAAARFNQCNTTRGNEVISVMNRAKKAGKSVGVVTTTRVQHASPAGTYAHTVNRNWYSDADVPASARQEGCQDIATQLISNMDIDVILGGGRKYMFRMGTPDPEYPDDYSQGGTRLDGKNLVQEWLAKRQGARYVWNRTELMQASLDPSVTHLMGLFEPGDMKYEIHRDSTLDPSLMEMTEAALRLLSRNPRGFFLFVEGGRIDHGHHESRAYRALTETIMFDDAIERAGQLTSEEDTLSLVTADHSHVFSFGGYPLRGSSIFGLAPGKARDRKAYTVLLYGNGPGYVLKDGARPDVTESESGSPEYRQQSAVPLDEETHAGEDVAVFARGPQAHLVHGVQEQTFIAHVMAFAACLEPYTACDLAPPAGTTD
Procedure: as §1, §2

TNAP [7] = target: T2, TNAP; design: method as in PMID 17638573; conditions: existing inhibitors of TNAP; read-out: TNAP- Color Ki; cited from earlier work
[8] = Stability in rat liver microsomes (RLM); format: in vitro ADME; conditions: 20-minute incubation
[9] = system: primary calvarial osteoblast cultures; experiment: Calcification in primary calvarial osteoblast cultures; format: cell-based, mouse; conditions: 30 µM, osteoblasts of WT mice cultured 19 days
Procedure: Figure 5 Suppression of calcification by CID-2931238 in primary calvarial osteoblast cultures. Osteoblasts from calvaria bones of WT mice were cultured for 19 days. Media supplemented with 50 µg/mL ascorbic acid and 10 mM β-glycerophosphate were renewed every second or third day (total seven medium changes). The concentration of each compound was maintained at 30 µM. RAU = relative absorbance units.

Compound: Cn1cnnc1Sc1nc(Nc2ccccc2)nc(Nc2ccccc2)n1 [MLS-5804079]
Ki (TNAP [7]): 6500 nM

Compound: O=C(c1ccccc1)C(Sc1nnc[nH]1)c1ccccc1 (stereo not shown) [MLS-5361418]
Ki (TNAP [7]): 5600 nM

Compound: COc1ccc(OC)c(S(=O)(=O)Nc2cnc3ccccc3c2)c1 [MLS-0038949]
inhibition of IAP (IAP [1]; at or below 100 µM): did not show any inhibition | IC50 (IAP [1]; read-out: Selectivity Panel IC50 IAP): > 100000 nM | compound remaining in rat liver microsomes [8]: virtually all-of-the compound remained | effect on GAPDH activity (GAPDH): no effect | cytotoxicity [3]: no cytotoxicity | solubility [5]: < 25 µM | inhibition of mineralization [9]: completely inhibited mineralization | inhibition of PLAP (human PLAP; at or below 100 µM): did not show any inhibition | IC50 (human PLAP; read-out: Selectivity Panel IC50 PLAP): > 100000 nM

Further lines, with some results ahead:

mode of IAP inhibition versus the CDP-star substrate (IAP [1]): non-competitive | potency relative to all other existing small-molecule inhibitors of IAP (IAP [1]): > 6,500 fold | selectivity for IAP over TNAP (IAP [1]): 7 fold | IC50 (IAP [1]; phtalimide triazole series, read-out: IC50 IAP-Lumi): 120 nM | IC50 (IAP [1]; unit not printed in Table 8 ([…]), n=7, read-out: IAP-Lumi): 122 nM | effect on GAPDH activity (GAPDH): no effect | IC50 (TNAP [2]; phtalimide triazole series, read-out: IC50 TNAP- Lumi): 800 nM | IC50 (TNAP [2]; unit not given in Table 8, n=7, read-out: TNAP-Lumi): 795 nM | IC50 (TNAP [4]): > 100000 nM | solubility [5]: < 25 µM | IC50 (IAP [6]): 1380 nM | IC50 (human PLAP; unit not given in Table 8, n=3, read-out: PLAP-Lumi): 4810 nM
Compound: O=C1C2CC=CCC2C(=O)N1c1nc(-c2ccccc2)n[nH]1 (stereo not shown) [CID-2946732]
2C9 (CYP2C9): 92.5% I @ | 2C19 (CYP2C19): 79.6% I @ | cytotoxicity [3]: no cytotoxicity

inhibition of GAPDH (GAPDH; at or below 10 µM): did not show any inhibition | selectivity index against the closest counter-targets (PLAP, GAPDH) (TNAP [2]): > 2,000 fold | IC50 (TNAP [2]; TNAP, read-out: IC50 (Figure 6, pyrazole series optimization)): 5 nM | IC50 (TNAP [2]; read-out: TNAP IC50, luminescent assay): 5.19 nM | inhibition of PLAP (human PLAP; at or below 10 µM): did not show any inhibition
Compound: O=C(NCCO)c1cc(-c2ccc(Cl)c(Cl)c2Cl)n[nH]1 [MLS-0146291]
